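A five-concentration, 48-hour dose response in 96-well plates underlies each endpoint, interpolated linearly between surrounding concentrations. Definition used: TGI = concentration required for complete inhibition of growth.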
Columns and labels:
Assay in all cases: NCI-60 cell line screen, 48 h
SK-OV-3 ovarian = test system: SK-OV-3 ovarian
ACHN renal = test system: ACHN renal
KM20L2 colon = test system: KM20L2 colon
DMS 273 small cell lung = test system: DMS 273 small cell lung
SK-MEL-5 melanoma = test system: SK-MEL-5 melanoma
K-562 leukemia = test system: K-562 leukemia
RXF 393 renal = test system: RXF 393 renal
NCI-H460 lung = test system: NCI-H460 lung
HOP-92 NSCLC = test system: HOP-92 NSCLC
786-0 renal = test system: 786-0 renal
A498 renal = test system: A498 renal
XF 498 CNS = test system: XF 498 CNS
OVCAR-5 ovarian = test system: OVCAR-5 ovarian
SNB-19 CNS = test system: SNB-19 CNS
SK-MEL-28 melanoma = test system: SK-MEL-28 melanoma
EKVX NSCLC = test system: EKVX NSCLC
OVCAR-4 ovarian = test system: OVCAR-4 ovarian
KM12 colon = test system: KM12 colon
NCI-H226 lung = test system: NCI-H226 lung
HL-60(TB) leukemia = test system: HL-60(TB) leukemia
DLD-1 colon = test system: DLD-1 colon
SF-539 CNS = test system: SF-539 CNS
IGROV1 ovarian = test system: IGROV1 ovarian
HT29 colon = test system: HT29 colon
LXFL 529 NSCLC = test system: LXFL 529 NSCLC
M19-MEL melanoma = test system: M19-MEL melanoma
OVCAR-8 ovarian = test system: OVCAR-8 ovarian
A549 NSCLC = test system: A549 NSCLC
SR leukemia = test system: SR leukemia
CAKI-1 renal = test system: CAKI-1 renal
NCI-H522 lung = test system: NCI-H522 lung
SF-268 CNS = test system: SF-268 CNS
TK-10 renal = test system: TK-10 renal
UO-31 renal = test system: UO-31 renal
UACC-257 melanoma = test system: UACC-257 melanoma
LOX IMVI melanoma = test system: LOX IMVI melanoma
SN12C renal = test system: SN12C renal
UACC-62 melanoma = test system: UACC-62 melanoma
SF-295 CNS = test system: SF-295 CNS
DMS 114 small cell lung = test system: DMS 114 small cell lung
COLO 205 colon = test system: COLO 205 colon
MALME-3M melanoma = test system: MALME-3M melanoma
HOP-62 NSCLC = test system: HOP-62 NSCLC

Measured: TGI

CCN(CC)c1c(C(=O)/C=C/c2ccccc2)c(-c2ccccc2)nn(C)c1=O
35.9 µM: LOX IMVI melanoma
> 100 µM: all other assays above
